Patent publication US20200131144A1, “AMINE OR (THIO)AMIDE CONTAINING LXR MODULATORS” (Phenex-FXR GmbH, priority 2017, published 2020)
“And” between values parts separate entries of the source, which are not always exact repeats. Identical values can stand only once.

Experiments:
LXRα full length (FL) = target: T1, LXRα full length (FL) (Homo sapiens, UniProt Q13133); test: LXR Gal4 reporter transient transfection assay, mammalian two-hybrid, FL-M2H Gal4α; type: cell-based; conditions: HEK293 cells; inverse agonist unless *
T1 construct: the full length (FL) proteins of LXRα (amino acids 1-447); NP005684; expressed in transfected cells; host or cells: HEK293
T1 sequence (Q13133 1-447): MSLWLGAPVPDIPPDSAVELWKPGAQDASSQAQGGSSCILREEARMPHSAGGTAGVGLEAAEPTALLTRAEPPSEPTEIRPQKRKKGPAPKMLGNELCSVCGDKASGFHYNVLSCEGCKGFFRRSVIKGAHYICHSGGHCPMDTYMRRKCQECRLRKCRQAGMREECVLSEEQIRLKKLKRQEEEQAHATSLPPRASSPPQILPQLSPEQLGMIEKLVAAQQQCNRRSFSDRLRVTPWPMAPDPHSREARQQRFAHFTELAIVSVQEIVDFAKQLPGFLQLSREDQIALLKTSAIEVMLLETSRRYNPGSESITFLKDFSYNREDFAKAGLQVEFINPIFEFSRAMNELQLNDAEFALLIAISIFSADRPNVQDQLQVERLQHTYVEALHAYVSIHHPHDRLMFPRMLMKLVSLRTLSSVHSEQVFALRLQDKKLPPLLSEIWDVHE
Protocol: (§1) The tested compounds were usually dissolved, tested and stored as 20 mM stock solutions in DMSO. Since sulfonyl acetic acid derivatives tend to decarboxylate under these conditions, these stock solutions were prepared, tested and stored as 20 mM DMSO stock solutions containing 100 mM trifluoroacetic acid (5 equivalents). Sulfonyl acetic acid derivatives are shelf stable as solid at rt for long time as reported by Griesbrecht et al. (Synlett 2010:374) or Faucher et al. (J. Med. Chem. 2004; 47:18).
(§2) LXR Gal4 Reporter Transient Transfection Assays
(§3) LXRα and LXRβ activity status was determined via detection of interaction with coactivator and corepressor proteins in mammalian two-hybrid experiments (M2H). For this, via transient transfection the full length (FL) proteins of LXRα (amino acids 1-447; NP005684; SEQ ID NO:1) or LXRβ-(amino acids 1-461; NP009052; SEQ ID NO:2) or the ligand-binding domains (LBD) of LXRα (amino acids 155-447 SEQ ID NO:3) or LXR (amino acids 156-461; SEQ ID NO:4) were expressed from pCMV-AD (Stratagene) as fusions to the transcriptional activation domain of NFkB. As cofactors, domains of either the steroid receptor coactivator 1 (SRC1; amino acids 552-887; SEQ ID NO:5) or of the corepressor NCoR (amino acids 1906-2312; NP006302; SEQ ID NO:6) were expressed as fusions to the DNA binding domain of the yeast transcription factor GAL4 (from pCMV-BD; Stratagene). Interaction was monitored via activation of a coexpressed Firefly Luciferase Reporter gene under control of a promoter containing repetitive GAL4 response elements (vector pFRLuc; Stratagene). Transfection efficiency was controlled via cotransfection of constitutively active pRL-CMV Renilla reniformis luciferase reporter (Promega). HEK293 cells were grown in minimum essential medium (MEM) with 2 mM L-glutamine and Earle's balanced salt solution supplemented with 8.3% fetal bovine serum, 0.1 mM non-essential amino acids, 1 mM sodium pyruvate, at 37° C. in 5% CO2. 3.5×10^4 cells/well were plated in 96-well cell culture plates in growth medium supplemented with 8.3% fetal bovine serum for 16-20 h to—90% confluency. For transfection, medium was taken off and LXR and cofactor expressing plasmids as well as the reporter plasmids are added in 30 μL OPTIMEM/well including polyethylene-imine (PEI) as vehicle. Typical amounts of plasmids transfected/well: pCMV-AD-LXR (5 ng), pCMV-BD-cofactor (5 ng), pFR-Luc (100 ng), pRL-CMV (0.5 ng). Compound stocks were prepared in DMSO, prediluted in MEM to a total volume of 120 μL, and added 4 h after addition of the transfection mixture (final vehicle concentration not exceeding 0.2%). Cells were incubated for additional 16 h, lysed for 10 min in 1×Passive Lysis Buffer (Promega) and Firefly and Renilla luciferase activities were measured sequentially in the same cell extract using buffers containing D-luciferine and coelenterazine, respectively. Measurements of luminescence were done in a BMG-luminometer.

LXRβ full length (FL) = target: T2, LXRβ full length (FL) (Homo sapiens, UniProt P55055, INS174Q); test: LXR Gal4 reporter transient transfection assay, mammalian two-hybrid, FL-M2H Gal4β; type: cell-based; conditions: HEK293 cells; inverse agonist unless *
T2 construct: the full length (FL) proteins of LXRα (amino acids 1-447); NP005684; NP009052; expressed in transfected cells; host or cells: HEK293
T2 sequence (P55055 with tags, fused parts or gaps INS174Q): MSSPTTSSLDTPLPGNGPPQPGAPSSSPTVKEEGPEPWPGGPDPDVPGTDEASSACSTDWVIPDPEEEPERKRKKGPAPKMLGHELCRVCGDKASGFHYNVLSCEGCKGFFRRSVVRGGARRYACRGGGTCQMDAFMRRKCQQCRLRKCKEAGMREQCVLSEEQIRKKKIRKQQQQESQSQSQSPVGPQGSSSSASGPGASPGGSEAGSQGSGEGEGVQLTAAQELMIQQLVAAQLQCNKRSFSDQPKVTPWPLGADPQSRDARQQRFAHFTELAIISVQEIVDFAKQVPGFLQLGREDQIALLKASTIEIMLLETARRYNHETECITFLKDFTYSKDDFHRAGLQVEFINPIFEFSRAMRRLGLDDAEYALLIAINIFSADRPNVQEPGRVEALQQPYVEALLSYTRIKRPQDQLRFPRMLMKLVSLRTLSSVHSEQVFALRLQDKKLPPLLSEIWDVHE
Protocol: as §1, §2, §3

[1] = target: T3, GST-LXRβ ligand-binding domain (Homo sapiens, UniProt P55055, INS174Q); test: TR-FRETβ activity assay (NCoA3 coactivator peptide recruitment); type: biochemical; conditions: 1 μM 24(S)-25-epoxycholesterol as prestimulating agonist; inverse agonist unless *
T3 construct: amino acids 156-461; NP009052; made in house; host or cells: E. coli
T3 sequence (P55055 with tags, fused parts or gaps INS174Q limits assumed): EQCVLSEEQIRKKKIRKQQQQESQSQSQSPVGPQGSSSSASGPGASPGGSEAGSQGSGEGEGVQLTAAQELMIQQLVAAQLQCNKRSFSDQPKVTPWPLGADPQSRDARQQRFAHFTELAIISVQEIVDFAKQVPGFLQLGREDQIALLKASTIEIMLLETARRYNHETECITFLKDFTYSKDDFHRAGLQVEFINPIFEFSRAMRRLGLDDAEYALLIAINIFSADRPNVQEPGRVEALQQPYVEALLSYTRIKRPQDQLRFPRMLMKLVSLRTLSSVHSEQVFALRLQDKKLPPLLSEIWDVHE
Protocol: The tested compounds were usually dissolved, tested and stored as 20 mM stock solutions in DMSO. […] Sulfonyl acetic acid derivatives are shelf stable as solid at rt for long time as reported by Griesbrecht et al. (Synlett 2010:374) or Faucher et al. (J. Med. Chem. 2004; 47:18). TR-FRETβ Activity Assay Recombinant GST-LXRβ ligand-binding domain (LBD; amino acids 156-461; NP009052; SEQ ID NO:4) was expressed in E. coli and purified via gluthatione-sepharose affinity chromatography. N-terminally biotinylated NCoA3 coactivator peptide (SEQ ID NO:7) was chemically synthesized (Eurogentec). […] Finally, a detection mix was added containing anti GST-Tb cryptate (CisBio; 610SAXLB) and Streptavidin-XL665 (CisBio; 610SAXLB) as fluorescent donor and acceptor, respectively, as well as the coactivator peptide and LXRβ-LBD protein (SEQ ID NO:4). The reaction was mixed thoroughly, equilibrated for 1 h at 4° C. and vicinity of LXRβ and coactivator peptide was detected by measurement of fluorescence in a VictorX4 multiplate reader (PerkinElmer Life Science) using 340 nm as excitation and 615 and 665 nm as emission wavelengths. Assays were performed in triplicates. Final Assay Concentrations of Components: 240 mM KCl, 1 μg/μL BSA, 0.002% Triton-X-100, 125 pg/μL anti GST-Tb cryptate, 2.5 ng/μL Streptavidin-XL665, coactivator peptide (400 nM), LXRP protein ([…], i.e. 76 nM).

| SMILES | EC50 (LXRα full length (FL)) [µM] | EC50 (LXRβ full length (FL)) | EC50 [1] [µM] | FRETβ [1] |
| --- | --- | --- | --- | --- |
| O=C(O)CS(=O)(=O)c1cccc(-c2ccc(CN(Cc3ccc(C(F)(F)F)o3)Cc3cccc4ccccc34)cc2)c1 [7/2] | 0.1 to 1 | 0.1 to 1 µM | 1 to 10 |  |
| O=C(O)CS(=O)(=O)c1cccc(-c2ccc(CN(Cc3ccc(C(F)(F)F)o3)Cc3ccc(F)c4cccnc34)cc2)c1 [7/3] | 1 to 10 | 1 to 10 µM and 0.1 to 1 µM |  | B* |
| COc1ccc2ccccc2c1CN(Cc1ccc(-c2cccc(S(=O)(=O)CC(=O)O)c2)cc1)Cc1ccc(C(F)(F)F)o1 [7/5] | 0.1 to 1 | 0.1 to 1 µM | 0.1 to 1 |  |
| O=C(O)CS(=O)(=O)c1cccc(-c2ccc(CN(Cc3ccc(C(F)(F)F)o3)Cc3c(Cl)cccc3Cl)cc2)c1 [7/10] | 1 to 10 | 0.1 to 1 µM | 0.1 to 1 |  |
| Cc1ccc2ccccc2c1C(=O)N(Cc1ccc(-c2cccc([C@H](C)C(=O)O)c2)cc1)Cc1ccc(C(F)(F)F)o1 [10/6] | < 0.1 | < 0.1 µM | < 0.1 |  |
| Cc1ccc2ccccc2c1CN(Cc1ccc(-c2cc(F)c(CO)c(S(=O)(=O)CC(=O)O)c2)cc1)Cc1ccc(C(F)(F)F)o1 [22/7] | 0.1 to 1 | 0.1 to 1 µM | 1 to 10 |  |
| COc1cc(-c2cc(F)c(CO)c(S(=O)(=O)CC(=O)O)c2)ccc1CN(Cc1ccc(C(F)(F)F)o1)Cc1c(C)ccc2ccccc12 [22/9] | 0.1 to 1 | < 0.1 µM | 1 to 10 |  |
| Cc1ccc2ccccc2c1C(=O)N(Cc1ccc(-c2cccc(C(C)(C)C(=O)O)c2)cc1)Cc1ccc(C(C)(C)C)o1 [27/1] | 0.1 to 1 | < 0.1 µM | 1 to 10 |  |
| Cc1ccc2ccccc2c1C(=O)N(Cc1ccc(-c2cccc(S(=O)(=O)CC(=O)O)c2)cc1)Cc1ccc(C#N)o1 [27/2] | 1 to 10 | 1 to 10 µM | 1 to 10 |  |
| Cc1ccc2ccccc2c1C(=O)N(Cc1ccc(-c2cccc(S(=O)(=O)CC(=O)O)c2)cc1)Cc1ccc(C(F)(F)F)[nH]1 [27/3] | 1 to 10 | 1 to 10 µM | 1 to 10 |  |
| Cc1ccc2ccccc2c1C(=O)N(Cc1ccc(C(F)(F)F)o1)C1COc2cc(-c3cccc(C(C)(C)C(=O)O)c3)ccc21 (stereo not drawn) [27/4] | 0.1 to 1 | 0.1 to 1 µM | > 10 |  |
| Cc1ccc2ccccc2c1C(=O)N(Cc1ccc(-c2cccc(C(C)(C)C(=O)O)c2)cc1)C1CCc2ccc(C(F)(F)F)cc21 (stereo not drawn) [27/5] | < 0.1 | < 0.1 µM | 0.1 to 1 |  |
| Cc1ccc2ccccc2c1C(=O)N(Cc1ccc(C(F)(F)F)o1)Cc1c(F)cc(-c2cccc(C(C)(C)C(=O)O)c2)cc1Cl [27/6] | < 0.1 | < 0.1 µM | < 0.1 |  |
| CC(c1cccc2ncccc12)N(Cc1ccc(-c2cccc(S(=O)(=O)CC(=O)O)c2)cc1)Cc1ccc(C(F)(F)F)o1 (stereo not drawn) [27/8] | 0.1 to 1 | 0.1 to 1 µM | 1 to 10 |  |

Further lines, results first:

| EC50 (LXRα full length (FL)) [µM] | EC50 (LXRβ full length (FL)) | EC50 [1] [µM] | FRETβ [1] | SMILES |
| --- | --- | --- | --- | --- |
| 0.1 to 1 | 0.1 to 1 µM | 1 to 10 |  | Cc1sc2ccccc2c1CN(Cc1ccc(-c2cccc(S(=O)(=O)CC(=O)O)c2)cc1)Cc1ccc(C(F)(F)F)o1 [7/6] |
| 0.1 to 1 | 0.1 to 1 µM | 1 to 10 |  | Cc1cc(C)c(CN(Cc2ccc(-c3cccc(S(=O)(=O)CC(=O)O)c3)cc2)C(C)c2ccc(C(F)(F)F)o2)c(C)c1 (stereo not drawn) [7/12] |
| 1 to 10 | 1 to 10 µM | 1 to 10 |  | Cc1cc(C)c(CN(Cc2ccc(-c3cccc(S(=O)(=O)CC(=O)O)c3)cc2)Cc2ccc(C(=O)N(C)C)o2)c(C)c1 [7/13] |
| 1 to 10 | 0.1 to 1 µM | 1 to 10 |  | Cc1cc(C)c(CN(Cc2ccc(-c3cccc(S(=O)(=O)CC(=O)O)c3)cc2)Cc2cccc(C(F)(F)F)c2)c(C)c1 [7/14] |
| 0.1 to 1 | 0.1 to 1 µM | 0.1 to 1 |  | Cc1cc(C)c(CN(Cc2ccc(-c3cc(F)cc(S(=O)(=O)CC(=O)O)c3)cc2)Cc2ccc(C(F)(F)F)o2)c(C)c1 [12/1] |
| 1 to 10 | 0.1 to 1 µM | 1 to 10 |  | Cc1cc(C)c(CN(Cc2ccc(C(F)(F)F)o2)Cc2ccc(-c3cccc(S(=O)(=O)CC(=O)O)c3)cc2C)c(C)c1 [15/1] |
| 1 to 10 | 0.1 to 1 µM | 1 to 10 |  | COc1cc(-c2cc(F)c(CO)c(S(=O)(=O)CC(=O)O)c2)ccc1CN(Cc1ccc(C(F)(F)F)o1)Cc1c(C)cc(C)cc1C [22/10] |
| 0.1 to 1 | 0.1 to 1 µM | 1 to 10 |  | Cc1cc(C)c(C(=O)N(Cc2ccc(-c3cc(F)c(CO)c(S(=O)(=O)CC(=O)O)c3)cc2)Cc2ccc(C(F)(F)F)o2)c(C)c1 [22/13] |
| 1 to 10 | 0.1 to 1 µM | > 10 |  | Cc1ccc2ccccc2c1CN(Cc1ccc(-c2cncc(S(=O)(=O)CC(=O)O)c2)cc1)Cc1ccc(C(F)(F)F)o1 [26/7] |
